In US8791267B2, “Biaryl PDE4 inhibitors for treating inflammatory, cardiovascular and CNS disorders” (Decode Genetics EHF, priority 2007, dated 2014):

Tests used:
PDE4 = PDE4 (Homo sapiens, UniProt Q08499); test: In-vitro assay for PDE4 enzymes, real-time enzyme-coupled spectrophotometric assay (Table 9); format: biochemical; details: human PDE4D; activity class, Table 9; read-out: hPDE4D
PDE4B = PDE4B (Homo sapiens, UniProt Q07343); test: In-vitro assay for PDE4 enzymes, real-time enzyme-coupled spectrophotometric assay, PDE4B Activity (Table 10); format: biochemical; details: human PDE4B (hPDE4B), enzyme-coupled spectrophotometric assay; read-out: PDE4B Activity, hPDE4B
Chain of PDE4B (Q07343 whole entry): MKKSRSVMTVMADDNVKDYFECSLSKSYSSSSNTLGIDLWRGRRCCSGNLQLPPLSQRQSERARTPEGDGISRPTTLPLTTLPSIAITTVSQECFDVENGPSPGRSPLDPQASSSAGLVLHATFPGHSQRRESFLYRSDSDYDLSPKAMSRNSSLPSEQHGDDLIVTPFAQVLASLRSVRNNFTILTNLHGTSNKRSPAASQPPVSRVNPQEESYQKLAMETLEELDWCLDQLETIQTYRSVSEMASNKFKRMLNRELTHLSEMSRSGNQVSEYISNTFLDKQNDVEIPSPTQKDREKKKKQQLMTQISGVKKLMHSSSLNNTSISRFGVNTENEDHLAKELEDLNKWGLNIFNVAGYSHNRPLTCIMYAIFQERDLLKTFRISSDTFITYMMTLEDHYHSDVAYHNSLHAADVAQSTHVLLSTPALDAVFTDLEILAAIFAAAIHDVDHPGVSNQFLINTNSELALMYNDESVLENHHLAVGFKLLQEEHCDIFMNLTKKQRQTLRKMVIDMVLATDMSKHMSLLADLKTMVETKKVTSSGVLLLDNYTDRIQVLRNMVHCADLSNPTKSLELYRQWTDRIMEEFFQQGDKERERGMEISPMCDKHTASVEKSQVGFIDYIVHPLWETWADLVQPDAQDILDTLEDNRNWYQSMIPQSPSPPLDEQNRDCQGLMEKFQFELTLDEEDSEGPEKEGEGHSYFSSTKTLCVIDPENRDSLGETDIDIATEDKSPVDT

Chain of PDE4 (Q08499 whole entry): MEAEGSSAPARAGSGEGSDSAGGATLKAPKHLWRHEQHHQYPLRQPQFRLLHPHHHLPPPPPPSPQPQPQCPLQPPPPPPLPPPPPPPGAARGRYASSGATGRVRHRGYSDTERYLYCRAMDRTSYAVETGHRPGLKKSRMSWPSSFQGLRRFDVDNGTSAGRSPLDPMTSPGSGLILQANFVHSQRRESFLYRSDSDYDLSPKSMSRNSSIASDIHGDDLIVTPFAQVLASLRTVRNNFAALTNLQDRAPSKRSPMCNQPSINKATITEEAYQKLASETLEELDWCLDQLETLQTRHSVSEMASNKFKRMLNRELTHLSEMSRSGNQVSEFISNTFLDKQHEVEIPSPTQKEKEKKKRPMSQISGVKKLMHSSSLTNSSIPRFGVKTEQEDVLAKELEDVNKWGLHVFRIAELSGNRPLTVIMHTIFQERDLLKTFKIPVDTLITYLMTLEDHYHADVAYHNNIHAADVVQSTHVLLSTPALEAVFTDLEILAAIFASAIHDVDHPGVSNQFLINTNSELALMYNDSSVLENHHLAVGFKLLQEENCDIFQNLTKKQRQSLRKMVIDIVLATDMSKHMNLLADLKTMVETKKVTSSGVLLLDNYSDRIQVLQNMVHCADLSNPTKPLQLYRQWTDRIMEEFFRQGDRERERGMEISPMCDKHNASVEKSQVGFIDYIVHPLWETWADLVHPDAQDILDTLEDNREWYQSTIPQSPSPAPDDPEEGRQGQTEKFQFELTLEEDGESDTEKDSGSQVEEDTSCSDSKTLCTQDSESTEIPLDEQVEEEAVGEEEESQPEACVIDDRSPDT

Row | IC50 (PDE4) [µM] | IC50 (PDE4B) [µM] | Compound
1 | < 5 | 5 to 20 | COc1ccc(Cc2ccc(NS(C)(=O)=O)c(O)c2)c(F)c1-c1cccc(Cl)c1 [P-264]
2 | < 5 | < 5 | COc1ccc(Cc2ccc(N3CCOC3=O)nc2)c(F)c1-c1cccc(Cl)c1 [P-469, 3-[5-(3′-Chloro-2-fluoro-6-methoxy-biphenyl-3-ylmethyl)-pyridin-2-yl]-oxazolidin-2-one]
3 | < 5 | < 5 | NC(=O)Nc1ccc(Cc2ccc(O)c(-c3cccc(Cl)c3)c2F)cc1 [P-468, [4-(3′-Chloro-2-fluoro-6-hydroxy-biphenyl-3-ylmethyl)-phenyl]-urea]
4 | 5 to 20 | < 5 | COc1ccc(Cn2ccc(CN)cc2=O)cc1-c1cccc([N+](=O)[O-])c1 [P-213, 4-Aminomethyl-1-(6-methoxy-3′-nitro-biphenyl-3-ylmethyl)-1H-pyridin-2-one]
